Values quoted from earlier work, collected in paper PMC5384962, “First-in-human studies of seletalisib, an orally bioavailable small-molecule PI3Kδ inhibitor for the treatment of immune and inflammatory diseases” (European Journal of Clinical Pharmacology, 2017).

Set-up: method as in ref 29 = [29]; 29. Infinity Pharmaceuticals (2015) Press release: Infinity reports topline results from Phase 2 study of duvelisib in rheumatoid arthritis.
Details: patients with moderate-to-severe RA; cited from earlier work

C[C@H](Nc1ncnc2nc[nH]c12)c1cc2cccc(Cl)c2c(=O)n1-c1ccccc1 [duvelisib]
phase II primary endpoint (ACR20 at week 12): failed to meet its phase II study primary endpoint
